The source of these data is paper PMC3189771, “Structure–Activity Relationship of Halophenols as a New Class of Protein Tyrosine Kinase Inhibitors” (International Journal of Molecular Sciences, 2011).

Data set [1] concerns the target protein tyrosine kinase (PTK). The data set can be described thus: in vitro PTK inhibitory activity by ELISA (brain cytoplasmic tyrosine kinase extract, PGT substrate). Format: biochemical, mouse. As to conditions: genistein as positive control; for IC50: determined in triplicate. The protocol:
After removal of the male mouse (SD) meninges, the brain was weighted and homogenized with a glass homogenizer in four volumes of cold medium (containing 20 mmol/L Tris–HCl, pH 7.5, 0.25 mol/L sucrose, 2 mmol/L DDT, 2 mmol/L EDTA, 2 mmol/L Na3VO4, 1 mmol/L DMSF, 215 mg/L aprotinin, 1 mg/L PTIFtatin, 5 mg/L leupeptin) at high speed. The mixture was centrifuged for 10 min at 1000 × g at 4 °C; the supernatant was collected and re-centrifuged for 10 min at 10,000 × g at 4 °C to obtain the target supernatant. The target supernatant that contained cytoplasmic tyrosine kinase was collected, separately packed and stored at −70 °C.
PTK activity was determined by the ELISA method. In brief, the concentrations of PTKs used to construct calibration curves were as follows: 600, 500, 341, 200 and 100 × 10^−7 U/mL for PTK. 100 μL of 20 mg/L PGT (Sigma Aldrich) in 20 mmol/L PBS solution was added to 96-well microtiter plates at 37 °C overnight. After removing excess substrate solution, PBS–Tween 20 (PBST) was used to wash the wells one time, which were dried for 2 h at 37 °C and kept at 4 °C. Subsequently, 50 μL of the above PTK extraction (50 mmol/L HEPES, pH 7.4, 20 mmol/L MgCl2, 0.1 mmol/L MnCl2, 0.2 mmol/L Na3VO4, 0.6 mmol/L ATP) was added to the 96-well plates. Then, a certain concentration of the tested compounds (10 μL) and tyrosine kinase tissue extract solution were incubated at 37 °C for 1 h. The plate was washed three times with PBST at the end of the treatment, and 100 μL of the diluted horseradish-peroxidase-labeled mouse anti-phosphotyrosine monoclonal antibody IgG2bk (Sigma Aldrich) was added to each well, and incubated at 37 °C for 30 min. After removal of the antibody complex, and then washing three times with PBST, 100 μL freshly prepared TMB horseradish peroxidase color development solution (Beijing 4A Biotech Co., Ltd, China) was added and protected from light for 10 min. The reaction was terminated by addition of 100 μL/well 1 N sulfuric acid. Absorbance was measured at 450 nm in a microplate reader (SpectraMax M5).

Where only a bound is given, the exact number is not on record here.

For the compound `Oc1ccc(Cc2ccccc2I)cc1O` [Compound 4d, 2-iodo-3′,4′-dihydroxyl diphenylmethane], the melting point is 130 to 132 °C. In addition, the IC50 in data set [1] is over 50 µM.

For the compound `O=C(c1cc(Br)ccc1O)c1cc(O)c(O)cc1Br` [Compound 13c], in data set [1], the “PTK inhibitory activity (in words)” value is “no activity” and the 50% inhibitory concentration (IC50) is over 50 µM.

`Oc1ccc(Cc2ccccc2F)cc1O` [Compound 1d, 2-fluoro-3′,4′-dihydroxyl diphenylmethane] came in with a melting point of 91 to 92 °C. In data set [1], the IC50 was over 50 µM.

`COc1ccc(C(=O)c2ccc(F)cc2)cc1OC` [Compound 3a, 4-fluoro-3′,4′-dimethoxyl benzophenone] gave a melting point of 101 to 103 °C.

As to `Oc1cc(Br)c(Cc2cc(Br)ccc2O)cc1O` [Compound 13d], in data set [1], the “PTK inhibitory activity (in words)” value is reported as “stronger activities than that of genistein” and the IC50 is 5.05 µM.

`Oc1ccc(Cc2ccc(F)cc2)cc1O` [Compound 3d, 4-fluoro-3′,4′-dihydroxyl diphenylmethane] yielded a melting point of 59 to 61 °C. Further, the IC50 in data set [1] is over 50 µM.

For the compound `Oc1ccc(Cc2cccc(Cl)c2)cc1O` [Compound 9d], in data set [1], the “PTK inhibitory activity (in words)” value is given as “stronger activities than that of genistein” and the IC50 was found to be 12.9 µM.

For the compound `Oc1ccc(Cc2ccccc2Cl)cc1O` [Compound 8d], it took 14.8 µM to reach half-maximal inhibition in data set [1] (IC50).

As to `Oc1ccc(Cc2cccc(F)c2)cc1O` [Compound 2d, 3-fluoro-3′,4′-dihydroxyl diphenylmethane], the melting point was 66 to 68 °C. In data set [1], this compound displayed an IC50 of over 50 µM.

Turning to `O=C(c1ccc(O)c(O)c1)c1c(Cl)c(O)c(O)c(O)c1Cl` [Compound 6c], in data set [1], the “PTK inhibitory activity (in words)” value was “stronger activities than that of genistein” and the IC50 worked out at 2.97 µM.

Compound `O=C(c1ccc(O)c(O)c1)c1ccccc1F` [Compound 1c, 2-fluoro-3′,4′-dihydroxyl benzophenone] returned a melting point of 149 to 150 °C. Moreover, in data set [1], the IC50 was over 50 µM.

In turn, `O=C(c1ccccc1)c1cc(O)c(O)c(Br)c1Br` [Compound 12c] displayed an IC50 in data set [1] of over 50 µM.

On to `Oc1ccc(Cc2c(Br)c(O)c(O)c(O)c2Br)cc1O` [Compound 5d], for which, in data set [1], the “PTK inhibitory activity (in words)” value is recorded as “no activity” and the IC50 is over 50 µM.

Take `Oc1cc(Br)c(Cc2ccc(O)c(Br)c2)cc1O` [Compound 7d]: in data set [1], the “PTK inhibitory activity (in words)” value was “stronger activities than that of genistein” and 6.34 µM corresponded to half-maximal inhibition (IC50).

For the compound `O=C(c1ccc(O)c(O)c1)c1c(Br)c(O)c(O)c(O)c1Br` [Compound 5c], in data set [1], the “PTK inhibitory activity (in words)” value is reported as “no activity” and the IC50 is over 50 µM.

Regarding `O=C(c1cccc(F)c1)c1ccc(O)c(O)c1` [Compound 2c, 3-fluoro-3′,4′-dihydroxyl benzophenone], the melting point lay within 104 to 106 °C. The IC50 in data set [1] was over 50 µM.

In turn, `Oc1cc(Cc2ccccc2)c(Br)c(Br)c1O` [Compound 12d] gave an IC50 in data set [1] of over 50 µM.

Take `O=C(c1cccc(Cl)c1)c1ccc(O)c(O)c1` [Compound 9c]: the IC50 in data set [1] was determined as 17.8 µM.

For the compound `O=C(c1ccc(F)cc1)c1ccc(O)c(O)c1` [Compound 3c, 4-fluoro-3′,4′-dihydroxyl benzophenone], the melting point lay in the range of 155 to 157 °C. Further, in data set [1], the IC50 was over 50 µM.

The compound `O=C(c1ccc(Cl)cc1)c1ccc(O)c(O)c1` [Compound 10c] came in with an IC50 in data set [1] of 41.6 µM.

`O=C(c1ccc(O)c(Br)c1)c1cc(O)c(O)cc1Br` [Compound 7c]: in data set [1], the “PTK inhibitory activity (in words)” value is “no activity” and the IC50 is over 50 µM.

Turning to `O=C(c1ccc(O)c(O)c1)c1ccccc1I` [Compound 4c, 2-iodo-3′,4′-dihydroxyl benzophenone], the melting point was 186 to 188 °C. Besides, in data set [1], the IC50 is over 50 µM.

Take `Oc1cc(Br)c(Cc2ccccc2)cc1O` [Compound 11d]: in data set [1], the “PTK inhibitory activity (in words)” value is “stronger activities than that of genistein” and the IC50 was 6.26 µM.

Regarding `O=C(c1ccc(O)c(O)c1)c1ccccc1Cl` [Compound 8c], it took 17.7 µM to reach half-maximal inhibition in data set [1] (IC50).

For the compound `COc1ccc(C(=O)c2ccccc2I)cc1OC` [Compound 4a, 2-iodo-3′,4′-dimethoxyl benzophenone], the melting point fell in the range of 143 to 145 °C.

Regarding `Oc1ccc(Cc2ccc(Cl)cc2)cc1O` [Compound 10d], in data set [1], the “PTK inhibitory activity (in words)” value is listed as “stronger activities than that of genistein” and it took 6.97 µM to reach half-maximal inhibition (IC50).

With `Oc1ccc(Cc2c(Cl)c(O)c(O)c(O)c2Cl)cc1O` [Compound 6d], in data set [1], the “PTK inhibitory activity (in words)” value is listed as “stronger activities than that of genistein” and the IC50 is 3.96 µM.

Take `O=C(c1ccccc1)c1cc(O)c(O)cc1Br` [Compound 11c]: in data set [1], the midpoint of inhibition, the IC50, lay at 16 µM.

Turning to `COc1ccc(C(=O)c2cccc(F)c2)cc1OC` [Compound 2a, 3-fluoro-3′,4′-dimethoxyl benzophenone], the melting point was in the range of 103 to 105 °C.

As to `O=c1c(-c2ccc(O)cc2)coc2cc(O)cc(O)c12` [Genistein, genistein, reference compound], in data set [1], the IC50 is 13.6 µM.

As to `COc1ccc(C(=O)c2ccccc2F)cc1OC` [Compound 1a, 2-fluoro-3′,4′-dimethoxyl benzophenone], the melting point is 77 to 79 °C.
